# Data published in US10398713B2, “Compositions and methods for the treatment of neurodegenerative and other diseases” (Glialogix, Inc., priority 2013, dated 2019).
# Legend:
# [1] = 2 g oral dose; humans with ABCG2 genotype (421C/C); cited from earlier work
# [2] = system: SOD1^G93A mice; test: Survival study in SOD1 G93A mice (neurological score, survival); type: in vivo, mouse; conditions: for Expected Days, Sulfasalazine: predicted from vehicle cohort if no effect
# Description: High-copy SOD1^G93A transgenic mice were derived from the B6SJL-TgN(SOD1G93A)1Gur strain, obtained from The Jackson Laboratory (Bar Harbor, Me.) and originally produced by Gurney, e.g. Gurney et al., Science 264: 1772-1775 (1994). Animal experiments with the SOD1 model were performed at ALS Therapy Development Institute (herein “ALS-TDI”; Cambridge, Mass.). All mice were genotyped to verify copy number of the SOD1 transgene. Animal handling and study protocols were as previously described by ALS-TDI, e.g. Scott et al., Amyotroph. Lateral Scler. 9: 4-15 (2008).
# Groups were balanced with respect to gender and body weight within gender. In addition, groups were age-matched and littermate-matched. […] Each cohort of was balanced between males and females.
# (§1) 5 mL of 0.1 N NaOH was added and the tube gently sonicated. Approximately 140 μL of 1 N HCl was then added to bring the pH to 8.00. The resulting 20 mg/mL solution was delivered by intraperitoneal injection at 10 ml/kg. Vehicle treated mice were administered saline.
# Neurological scores were assessed daily from day 50 for both hind legs. The neurological score was based on a scale of 0 to 4. Criteria used to assign each score level are from Scott et al., Amyotroph. Lateral Scler. 9: 4-15 (2008) and are described in Table 2.
# The date of definitive neurological disease was the day that the mouse first scored a “2” on the Neurological Score. Upon reaching a score of Neurological Score of “4”, mice were euthanized and the date of death was recorded.
# Survival after onset of definitive neurological disease is defined as the total number of days the mice lived after reaching definitive neurological disease (Neurological Score of 2) and before death (Neurological Score of 4). Survival after onset of definitive neurological disease was analyzed in two ways.
# The first day that a neurological score was determined was day 50 of age; measurements were collected daily afterwards until death.
# The three categories were: (1) days spent before definitive neurological disease, e.g. with a neurological score of 0 or 1; (2) days spent during definitive neurological disease, e.g. with a neurological score of 2 or 3; and (3) days at death, e.g. with a neurological score of 4. By definition, mice were only in the dead state for 1 day, as they were euthanized upon reaching a neurological score of 4; this category was included as a positive control to ensure the integrity of the data and analysis.
# [3] = system: activated astrocytes; test: Quantitative immunohistochemistry of astrocyte activation (anti-GFAP) in the spinal cord of SOD1 mice; type: in vivo, mouse
# Description: Two ages of mice were chosen for this analysis: day 85, when SOD1 mice show no overt sign of the ALS-like symptomology, and day 100, when SOD1 mice typically begin displaying the first signs of ALS-like symptomology, such as partial collapse of leg extension towards lateral midline (weakness) or trembling of hind legs during a tail suspension test. For the immunohistochemical studies, a total of 48 mice were divided into 6 cohorts of 8 mice each (4 females and 4 males) as shown in Table 5.
# as §1
# Mice were sacrificed by CO2 asphyxiation according to IACUC approved protocols. The spinal cord was extruded with cold PBS into a bath of cold PBS from the vertebral column of mice using an 18 gauge needle inserted in the sacral vertebral column to a friction fit. Upon extrusion, the spinal cord tissue was rinsed and dropped into 4% paraformaldehyde for 24 hours at room temperature (RT, approximately 25° C.). The tissue was then transferred to a 1× phosphate buffered saline (PBS) solution. Samples were then processed by TissueTek processors for paraffin embedding. Spinal cord samples were then embedded in paraffin blocks and oriented for transverse sectioning. Spinal cord samples were sectioned at 10 microns thickness. Three representative sections were cut from lumbar, thoracic and cervical regions of the spinal cord. Samples were pretreated with Pronase for 20 minutes at RT, followed by treatment with 3% H2O2 for 12 minutes at RT. Horse serum was added to 2% and samples incubated for 20 minutes at RT. The samples were then incubated with the primary antibody (Anti-xCT; purchased from Abcam (Cambridge, Mass.); Catalog #Ab37185; diluted 1:500 in PBS) overnight at 4° C. The secondary antibody (Biotin labeled goat anti-rabbit IgG; 1:500 dilution in PBS) was then added and the reaction incubated overnight at RT. Reaction products were developed using the Vector ABC system (Vector Labs, Burlingame, Calif.) using avidin-conjugated horseradish peroxidase. xCT expression was visualized by addition of the chromogenic substrate DAB (3,3′-diaminobenzidine) for 10 minutes at RT. Each stained section was imaged at objectives: 4×, 10×, 20× and 40×. For each objective image, light parameters were optimized and kept consistent across all sections. For SLC7A11 analysis, all images that were captured at 20× were then imported into ImageJ freeware (NIH, Bethesda, Md.). A maximum entropy threshold algorithm was applied to all images in a completely blinded fashion to filter out all pixels that were not stained as DAB positive. The key parameter measured and reported is area fraction. Area fraction is the proportion of total pixels that are DAB positive in the ventral horn of the spinal cord. All statistical analyses were performed using JMP® 7.0, SAS Institute, Inc. Area fraction was compared with respect to treatment using 1-way ANOVA analysis, with a p-value of 0.05 considered significant.
# The same test mice, spinal cord preparations and methods of analysis used in the neuroinflammatory study were identical to those used in the xCT quantitation study. Two neuroinflammatory cell populations were quantitated: (1) activated microglial cells using an antibody to the F4/80 antigen, and (2) activated astrocytes, using an antibody to the GFAP antigen. For each objective image, light parameters were optimized and kept consistent across all sections. Images that were captured at 20× were then imported into ImageJ freeware (NIH, Bethesda, Md.). A maximum entropy threshold algorithm was applied to all images in a completely blinded fashion to filter out all pixels that were not stained as DAB positive. 20× images were analyzed in a blinded fashion and mean area fraction occupied by stain was tabulated. […]
# [4] = system: mouse model (anti-epileptic effect); conditions: approximately 260-320 mg/kg intraperitoneal; cited from earlier work
# [5] = SOD1, mouse, in vivo, ip, 200 mg/kg
# Description: The zero time point was taken before drug was administered to serve as a negative control for drug quantitation. […] Spinal cords and blood plasma samples (50 μl) were homogenized in 150 μl of phosphate buffer and then extracted by a mixture of methylene chloride and MTBE (1:4 dilution). Sample extracts were analyzed and quantitated by high-performance liquid chromatography using a BetaMax Acid column maintained at 35° C. The mobile phase was nebulized using heated nitrogen in a Z-spray source/interface and the ionized compositions were detected and identified using a tandem quadrupole mass spectrometer (MS/MS).
# [6] = sulfasalazine vs vehicle, SOD1 mice, 200 mg/kg IP two times per day
compound,measurement,setting,value
"O=C(O)c1cc(/N=N/c2ccc(S(=O)(=O)Nc3ccccn3)cc2)ccc1O [Sulfasalazine, 2-hydroxy-5-[(E)-2-{4-[(pyridin-2-yl)sulfamoyl]phenyl}diazen-1-yl]benzoic acid]",time plasma levels above 10 μg/ml were maintained,[1],approximately 7 hours
same,increase of median absolute survival,"[2]; SOD1 mice vs vehicle, 200 mg/kg IP two times per day, p=0.07",3.5 days
same,effect on time of disease onset,"[2]; SOD1 mice, 200 mg/kg IP two times per day",no statistical effect
same,"Expected Days, Sulfasalazine",[2]; Total Observations,2050 days
same,Observed Days Minus Expected Days,[2]; before definitive disease onset (neurological score 0 or 1),no significant difference
same,Observed Days Minus Expected Days,[2]; death (neurological score 4),no significant difference
same,"Observed Days, Sulfasalazine","[2]; death (neurological score 4), cohort n=27",27 days
same,"Expected Days, Sulfasalazine",[2]; death (neurological score 4),27 days
same,Absolute Change in Mean Day of Death,[2]; [6],3.7 days
same,Absolute Change in Mean Day of Definitive Neurological Disease,[2]; [6],−1.2 day
same,Absolute Change in Total Days of Survival after Onset of Definitive Disease,[2]; [6],4.9 days
same,Percent Change in Mean Day of Death,[2]; [6],2.9%
same,Percent Change in Mean Day of Definitive Neurological Disease,[2]; [6],−1.0%
same,Percent Change in Total Days of Survival after Onset of Definitive Disease (increased lifespan after onset),"[2]; sulfasalazine vs vehicle, SOD1 mice, 200 mg/kg IP two times per day, 200 mg/kg",39%
same,"Expected Days, Sulfasalazine","[2]; total days before definitive disease onset (neurological score 0 or 1), normalized for number of animals",1722 days
same,"Expected Days, Sulfasalazine",[2]; total days in definitive neurological disease (neurological score 2 or 3),301 days
same,Decreased activation in sulfasalazine treated SOD1 vs. vehicle treated SOD1 mice,"[3]; Cervical, Day 85",No decrease
same,Decreased activation in sulfasalazine treated SOD1 vs. vehicle treated SOD1 mice,"[3]; Cervical, Day 100, p < 0.01",significantly lowered
same,Decreased activation in sulfasalazine treated SOD1 vs. vehicle treated SOD1 mice,"[3]; Cervical, Day 100, p < 0.01, listed as sulfasalazine",Strong decrease
same,Decreased activation in sulfasalazine treated SOD1 vs. vehicle treated SOD1 mice,"[3]; Combined (cervical, thoracic, lumbar), Day 85, p < 0.05",Decrease
same,Decreased activation in sulfasalazine treated SOD1 vs. vehicle treated SOD1 mice,"[3]; Combined (cervical, thoracic, lumbar), Day 100",Trend
same,Decreased activation in sulfasalazine treated SOD1 vs. vehicle treated SOD1 mice,"[3]; Lumbar, Day 85, p < 0.05",significantly lowered
same,Decreased activation in sulfasalazine treated SOD1 vs. vehicle treated SOD1 mice,"[3]; Lumbar, Day 85, p < 0.05, listed as sulfasalazine",Decrease
same,Decreased activation in sulfasalazine treated SOD1 vs. vehicle treated SOD1 mice,"[3]; Lumbar, Day 100",did not effect
same,Decreased activation in sulfasalazine treated SOD1 vs. vehicle treated SOD1 mice,"[3]; Lumbar, Day 100, listed as sulfasalazine",No decrease
same,Decreased activation in sulfasalazine treated SOD1 vs. vehicle treated SOD1 mice,"[3]; Thoracic, Day 85",Trend
same,Decreased activation in sulfasalazine treated SOD1 vs. vehicle treated SOD1 mice,"[3]; Thoracic, Day 100",No decrease
same,duration of anti-epileptic effect,[4],disappears by three hours after administration
same,time therapeutically relevant concentrations were present in the spinal cord,[5],2 to 2.5 h
